Assay results taken from US11247990B1, “Bicyclic fused pyridine compounds as inhibitors of TAM kinases” (ARRAY BIOPHARMA INC., priority 2017, dated 2022).

How the values were obtained:
Details in all cases: averaged IC50
[1] = target: His-tagged recombinant human MER cytoplasmic domain (Homo sapiens (Human), UniProt Q12866); experiment: MER Enzyme Assay (LanthaScreen Eu Kinase Binding, TR-FRET)
In short: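 Percent of control, derived from ratiometric TR-FRET emission, was fitted to a 4-parameter logistic curve and IC50 taken at 50 POC. Binding was read after 60 min at 22 °C using Eu-based LanthaScreen technology and recombinant His-tagged MER cytoplasmic domain.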

[2] = target: GST-tagged recombinant human TYRO3 kinase domain (Homo sapiens (Human), UniProt Q06418); experiment: TYRO3 Enzyme Assay (LanthaScreen Eu Kinase Binding, TR-FRET)
GST-tagged recombinant human TYRO3 kinase domain, sequence (Q06418 518-790): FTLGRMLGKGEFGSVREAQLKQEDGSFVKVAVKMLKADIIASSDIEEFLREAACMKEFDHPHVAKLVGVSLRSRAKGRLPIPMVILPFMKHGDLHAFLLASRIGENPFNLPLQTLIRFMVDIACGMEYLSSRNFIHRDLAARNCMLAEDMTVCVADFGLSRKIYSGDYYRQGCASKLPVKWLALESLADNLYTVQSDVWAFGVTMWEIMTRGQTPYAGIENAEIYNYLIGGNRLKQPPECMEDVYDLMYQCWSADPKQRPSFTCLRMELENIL
In short: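 LanthaScreen Eu binding (tracer displacement) format read by TR-FRET after 60 min at 22 °C. Emission ratio converted to percent of control; IC50 taken where a 4-parameter logistic fit crosses 50 POC.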

[3] = target: His-tagged recombinant human AXL cytoplasmic domain (Homo sapiens (Human), UniProt P30530); experiment: AXL Enzyme Assay (LanthaScreen Eu Kinase Binding, TR-FRET)
His-tagged recombinant human AXL cytoplasmic domain, sequence (P30530 473-894): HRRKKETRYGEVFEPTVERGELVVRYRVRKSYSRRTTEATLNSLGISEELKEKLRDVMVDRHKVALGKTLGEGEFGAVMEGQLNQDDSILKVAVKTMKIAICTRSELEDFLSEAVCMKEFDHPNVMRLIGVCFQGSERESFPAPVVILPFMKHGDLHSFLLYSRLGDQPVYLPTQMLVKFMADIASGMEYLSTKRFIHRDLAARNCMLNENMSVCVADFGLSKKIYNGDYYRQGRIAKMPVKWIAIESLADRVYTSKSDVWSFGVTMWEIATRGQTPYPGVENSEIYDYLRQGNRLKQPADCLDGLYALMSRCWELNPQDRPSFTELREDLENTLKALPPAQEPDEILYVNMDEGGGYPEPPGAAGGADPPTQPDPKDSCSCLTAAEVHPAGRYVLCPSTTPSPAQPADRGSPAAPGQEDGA
Procedure: Compounds of Formula I were screened for their ability to inhibit AXL kinase using Invitrogen's LanthaScreen™ Eu Kinase Binding technology. […] After a 60-minute incubation at 22° C., the reaction was measured using a PerkinElmer EnVision multimode plate reader via TR-FRET dual wavelength detection, and the percent of control (POC) was calculated using a ratiometric emission factor. […] The POC values are fit to a 4 parameter logistic curve and the IC50 value is point where the curve crosses 50 POC.

His-tagged recombinant human MER cytoplasmic domain, sequence (Q12866 527-999): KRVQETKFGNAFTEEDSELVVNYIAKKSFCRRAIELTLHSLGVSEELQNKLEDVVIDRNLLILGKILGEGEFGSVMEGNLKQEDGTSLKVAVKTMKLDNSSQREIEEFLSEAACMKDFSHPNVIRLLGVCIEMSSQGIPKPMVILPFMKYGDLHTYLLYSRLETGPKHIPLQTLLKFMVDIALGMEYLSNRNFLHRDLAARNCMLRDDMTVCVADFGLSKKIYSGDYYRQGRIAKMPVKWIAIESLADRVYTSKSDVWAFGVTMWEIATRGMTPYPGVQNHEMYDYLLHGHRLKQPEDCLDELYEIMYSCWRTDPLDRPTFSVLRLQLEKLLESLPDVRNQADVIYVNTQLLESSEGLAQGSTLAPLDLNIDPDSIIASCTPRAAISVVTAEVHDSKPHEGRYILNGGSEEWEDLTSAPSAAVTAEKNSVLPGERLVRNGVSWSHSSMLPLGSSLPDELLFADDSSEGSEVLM

Row | SMILES | IC50 [1] | IC50 [2] | IC50 [3]
1 | CNc1cc2c(cn1)c(-c1ccc(C3(N4CCN(C)CC4)CC3)cc1)nn2[C@H]1CC[C@@H](Oc2ccc(=O)n(C)n2)CC1 [Example 53, 2-methyl-6-(((1s,4s)-4-(6-(methylamino)-3-(4-(1-(4-methylpiperazin-1-yl)cyclopropyl)phenyl)-1H-pyrazolo[4,3-c]pyridin-1-yl)cyclohexyl)oxy)pyridazin-3(2H)-one] | < 10 nM | 100 to 1000 nM | < 10 nM
2 | Cn1cc(-c2nn([C@H]3CC[C@@H](Oc4ccc(=O)n(C)n4)CC3)c3cc(N)ncc23)cn1 [Example 75, 6-(((1s,4s)-4-(6-amino-3-(1-methyl-1H-pyrazol-4-yl)-1H-pyrazolo[4,3-c]pyridin-1-yl)cyclohexyl)oxy)-2-methylpyridazin-3(2H)-one] | 1000 to 10000 nM | 1000 to 10000 nM | 1000 to 10000 nM
3 | CNc1cc2c(cn1)c(-c1ccc(CN3CCN(CCO)CC3)cc1)nn2[C@H]1CC[C@@H](Oc2ccc(=O)n(C)n2)CC1 [Example 78, 6-(((1s,4s)-4-(3-(4-((4-(2-hydroxyethyl)piperazin-1-yl)methyl)phenyl)-6-(methylamino)-1H-pyrazolo[4,3-c]pyridin-1-yl)cyclohexyl)oxy)-2-methylpyridazin-3(2H)-one] | < 10 nM | 100 to 1000 nM | < 10 nM
4 | CCNc1cc2c(cn1)c(-c1ncco1)nn2[C@H]1CC[C@@H](Oc2ccc(=O)n(C)n2)CC1 [Example 81, 6-(((1s,4s)-4-(6-(ethylamino)-3-(oxazol-2-yl)-1H-pyrazolo[4,3-c]pyridin-1-yl)cyclohexyl)oxy)-2-methylpyridazin-3(2H)-one bis(2,2,2-trifluoroacetate)] | 1000 to 10000 nM | 1000 to 10000 nM | 1000 to 10000 nM
5 | CCNc1cc2c(cn1)c(-c1ccn(CCN3CCOCC3)n1)nn2[C@H]1CC[C@@H](Oc2ccc(=O)n(C)n2)CC1 [Example 101, 6-(((1s,4s)-4-(6-(ethylamino)-3-(1-(2-morpholinoethyl)-1H-pyrazol-3-yl)-1H-pyrazolo[4,3-c]pyridin-1-yl)cyclohexyl)oxy)-2-methylpyridazin-3(2H)-one] |  | 1000 to 10000 nM | 1000 to 10000 nM
6 | CNc1cc2c(cn1)c(-c1cnn(C)c1)nn2[C@H]1CC[C@@H](Oc2ccc(=O)[nH]c2C(F)(F)F)CC1 [Example 105, 5-(((1s,4s)-4-(3-(1-methyl-1H-pyrazol-4-yl)-6-(methylamino)-1H-pyrazolo[4,3-c]pyridin-1-yl)cyclohexyl)oxy)-6-(trifluoromethyl)pyridin-2(1H)-one] | < 10 nM | < 10 nM | < 10 nM
7 | CCNc1cc2c(cn1)c(-c1cnn(C)c1)nn2[C@H]1CC[C@@H](Oc2cccn(C)c2=O)CC1 [Example 109, 3-(((1s,4s)-4-(6-(ethylamino)-3-(1-methyl-1H-pyrazol-4-yl)-1H-pyrazolo[4,3-c]pyridin-1-yl)cyclohexyl)oxy)-1-methylpyridin-2(1H)-one] |  | 1000 to 10000 nM | 1000 to 10000 nM
8 | CCn1c(O[C@H]2CC[C@@H](n3nc(-c4cnn(C)c4)c4cnc(NC)cc43)CC2)cccc1=O [Example 111, 1-ethyl-6-(((1s,4s)-4-(3-(1-methyl-1H-pyrazol-4-yl)-6-(methylamino)-1H-pyrazolo[4,3-c]pyridin-1-yl)cyclohexyl)oxy)pyridin-2(1H)-one] | < 10 nM | 10 to 100 nM | < 10 nM
9 | CNc1cc2c(cn1)c(-c1cnn(C)c1)nn2[C@H]1CC[C@@H](Oc2cccnc2C(F)(F)F)CC1 [Example 137, N-methyl-3-(1-methyl-1H-pyrazol-4-yl)-1-((1s,4s)-4-((2-(trifluoromethyl)pyridin-3-yl)oxy)cyclohexyl)-1H-pyrazolo[4,3-c]pyridin-6-amine] | < 10 nM | < 10 nM | < 10 nM
10 | CNc1cc2c(cn1)c(-c1cnn(C)c1)nn2[C@H]1CC[C@@H](Oc2cccnc2C#N)CC1 [Example 140, 3-(((1s,4s)-4-(3-(1-methyl-1H-pyrazol-4-yl)-6-(methylamino)-1H-pyrazolo[4,3-c]pyridin-1-yl)cyclohexyl)oxy)picolinonitrile] | < 10 nM | < 10 nM | < 10 nM
11 | CNc1cc2c(cn1)c(-c1cnn(C(C)(C)C#N)c1)nn2[C@H]1CC[C@@H](Oc2cccnc2C(F)(F)F)CC1 [Example 160, 2-methyl-2-(4-(6-(methylamino)-1-((1s,4s)-4-((2-(trifluoromethyl)pyridin-3-yl)oxy)cyclohexyl)-1H-pyrazolo[4,3-c]pyridin-3-yl)-1H-pyrazol-1-yl)propanenitrile] | < 10 nM | < 10 nM | < 10 nM
12 | CNc1cc2c(cn1)c(-c1cnn(C)c1)nn2[C@H]1CC[C@@H](Oc2cn(C)nc2C(F)(F)F)CC1 [Example 162, N-methyl-3-(1-methyl-1H-pyrazol-4-yl)-1-((1s,4s)-4-((1-methyl-3-(trifluoromethyl)-1H-pyrazol-4-yl)oxy)cyclohexyl)-1H-pyrazolo[4,3-c]pyridin-6-amine] | < 10 nM | < 10 nM | < 10 nM
13 | CNc1cc2c(cn1)c(-c1cnn(C(C)(C)C#N)c1)nn2[C@H]1CC[C@@H](Oc2cn(C)nc2C(F)(F)F)CC1 [Example 163, 2-methyl-2-(4-(1-((1s,4s)-4-((1-methyl-3-(trifluoromethyl)-1H-pyrazol-4-yl)oxy)cyclohexyl)-6-(methylamino)-lH-pyrazolo[4,3-c]pyridin-3-yl)-1H-pyrazol-1-yl)propanenitrile] | < 10 nM | < 10 nM | < 10 nM
14 | CCNc1cc2c(cn1)c(-c1ccc3c(c1)CN(C)S3(=O)=O)nn2[C@H]1CC[C@@H](Oc2cnn(C)c2C(F)(F)F)CC1 [Example 224, 5-(6-(ethylamino)-1-((1s,4s)-4-((1-methyl-5-(trifluoromethyl)-1H-pyrazol-4-yl)oxy)cyclohexyl)-1H-pyrazolo[4,3-c]pyridin-3-yl)-2-methyl-2,3-dihydrobenzo[d]isothiazole 1,1-dioxide] |  | 1000 to 10000 nM | 1000 to 10000 nM

More lines, now with the values ahead:

Row | IC50 [1] | IC50 [2] | IC50 [3] | SMILES
15 | < 10 nM | 10 to 100 nM | < 10 nM | CNc1cc2c(cn1)c(-c1cnn(C)c1)nn2[C@@H]1CC[C@H](Oc2ccccc2)[C@@H](O)C1 (racemic) [Example 470, Racemic-(1S,2S,5R)-5-(3-(1-methyl-1H-pyrazol-4-yl)-6-(methylamino)-1H-pyrazolo[4,3-c]pyridin-1-yl)-2-phenoxycyclohexan-1-ol]
16 | < 10 nM | < 10 nM | < 10 nM | CCNc1cc2c(cn1)c(N1CC[C@@H](N(C)C)C1)nn2[C@H]1CC[C@@H](Oc2nccc(C(F)(F)F)c2F)CC1 (stereo in doubt) [Example 334, 3-(®-3-(dimethylamino)pyrrolidin-1-yl)-N-ethyl-1-((1s,4S)-4-((3-fluoro-4-(trifluoromethyl)pyridin-2-yl)oxy)cyclohexyl)-1H-pyrazolo[4,3-c]pyridin-6-amine]
17 | < 10 nM |  | < 10 nM | CNc1cc2c(cn1)c(-c1cnn(C)c1)nn2[C@H]1CC[C@@H](Oc2cccc(Cl)c2)CC1 [Example 361, 1-((1s,4s)-4-(3-chlorophenoxy)cyclohexyl)-N-methyl-3-(1-methyl-1H-pyrazol-4-yl)-1H-pyrazolo[4,3-c]pyridin-6-amine]
18 | < 10 nM |  | < 10 nM | CNc1cc2c(cn1)c(-c1cnn(C)c1)nn2[C@H]1CC[C@@H](Oc2cc(F)ccc2F)CC1 [Example 362, 1-((1s,4s)-4-(2,5-difluorophenoxy)cyclohexyl)-N-methyl-3-(1-methyl-1H-pyrazol-4-yl)-1H-pyrazolo[4,3-c]pyridin-6-amine]
19 | < 10 nM |  | < 10 nM | CNc1cc2c(cn1)c(-c1cnn(C)c1)nn2[C@H]1CC[C@@H](Oc2ccccc2C#N)CC1 [Example 363, 2-(((1s,4s)-4-(3-(1-methyl-1H-pyrazol-4-yl)-6-(methylamino)-1H-pyrazolo[4,3-c]pyridin-1-yl)cyclohexyl)oxy)benzonitrile]
20 | < 10 nM |  | < 10 nM | CNc1cc2c(cn1)c(-c1cnn(C)c1)nn2[C@H]1CC[C@@H](Oc2ccccc2)CC1 [Example 371, N-methyl-3-(1-methyl-1H-pyrazol-4-yl)-1-((1s,4s)-4-phenoxycyclohexyl)-1H-pyrazolo[4,3-c]pyridin-6-amine]
21 | < 10 nM |  | < 10 nM | CNc1cc2c(cn1)c(-c1cnn(C(C)(C)C#N)c1)nn2[C@H]1CC[C@@H](Oc2ccccc2F)CC1 [Example 394, 2-(4-(1-((1s,4s)-4-(2-fluorophenoxy)cyclohexyl)-6-(methylamino)-1H-pyrazolo[4,3-c]pyridin-3-yl)-1H-pyrazol-1-yl)-2-methylpropanenitrile]
22 | < 10 nM |  | < 10 nM | CNc1cc2c(cn1)c(-c1cnn(CCN3CCOCC3)c1)nn2[C@H]1CC[C@@H](Oc2ccccc2F)CC1 [Example 397, 1-((1s,4s)-4-(2-fIuorophenoxy)cyclohexyl)-N-methyl-3-(1-(2-morpholinoethyl)-1H-pyrazol-4-yl)-1H-pyrazolo[4,3-c]pyridin-6-amine]
23 | < 10 nM |  | < 10 nM | CNc1cc2c(cn1)n(-c1cnn(C)c1)nc2[C@H]1CC[C@@H](Oc2ccccc2F)CC1 [Example 479, 3-((1s,4s)-4-(2-fluorophenoxy)cyclohexyl)-N-methyl-1-(1-methyl-1H-pyrazol-4-yl)-1H-pyrazolo[3,4-c]pyridin-5-amine]
